Consider 29 compounds from patent US6441006B2, “Pharmaceutical compositions and methods for use” (Targacept, Inc., priority 1998, dated 2002).

The target of one assay is T1, CNS nicotinic receptors (Rattus norvegicus, UniProt P09483+P12390).
T1 construct: Ki
The experiment in a line: Binding to relevant receptor sites. Conditions: calculated from IC50 values using the method of Cheng et al. On the procedure:
Binding of the compounds to relevant receptor sites was determined in accordance with the techniques described in U.S. Pat. No. 5,597,919 to Dull et al. Inhibition constants (Ki values), reported in nM, were calculated from the IC50 values using the method of Cheng et al., Biochem, Pharmacol. 22:3099 (1973).

The next assay concerns Rat brain synaptosomes. Put plainly: Neurotransmitter release from brain synaptosomes. The class given is biochemical. Conditions: in the presence of 10 µM of ligand; percentage of release obtained with 10 µM (S)-(-)-nicotine or 300 µM TMA. How it is done:
Neurotransmitter release was measured using techniques similar to those previously published (Bencherif M, et al. JPET 279: 1413-1421, 1996).
Rat brain synaptosomes were prepared as follows: Female Sprague Dawley rats (100-200 g) were killed by decapitation after anesthesia with 70% CO2. Brains are dissected, and hippocampus, striatum, and thalamus isolated, and homogenized in 0.32 M sucrose containing 5 mM HEPES pH 7.4 using a glass/glass homogenizer. The tissue was then centrifuged for 1000×g for 10 minutes and the pellet discarded. The supernatant was centrifuged at 12000×g for 20 minutes. The resultant pellet was re-suspended in perfusion buffer (128 mM NaCl, 1.2 mM KH2PO4, 2.4 mM KCl, 3.2 mM CaCl2, 1.2 mM MgSO4, 25 mM HEPES, 1 mM Ascorbic acid, 0.01 mM pargyline HCl and 10 mM glucose pH 7.4) and centrifuged for 15 minutes at 25000×g. The final pellet was resuspended in perfusion buffer and placed in a water bath (37° C.) for 10 minutes. Radiolabeled neurotransmitter is added (30 L^3H DA, 20 L^3H NE, 10 L^3H glutamate) to achieve a final concentration of 100 nM, vortexed and placed in a water bath for additional 10 minutes. Tissue-loaded filters is placed onto 11-mm diameter Gelman A/E filters on an open-air support. After a 10-minute wash period, fractions are collected to establish the basal release and agonist applied in the perfusion stream. Further fractions were collected after agonist application to re-establish the baseline. The perfusate was collected directly into scintillation vials and released radioactivity was quantified using conventional liquid scintillation techniques. Release of neurotransmitter was determined in the presence of […] of various ligands and was expressedas a percentage of release obtained with a concentration of 10 M (S)-(−)-nicotine or 300 MTMA resulting in maximal effects.

Assay [1] addresses T2, muscle-type nicotinic acetylcholine receptors (Homo sapiens, UniProt P02708+P07510+Q07001).
T2 construct: endogenous in cells; host or cells: TE671/RD (own knowledge of the cited US 5,597,919)
The experiment in a line: Interaction with muscle receptors. It is filed as cell-based. Conditions: Emax, percentage of maximal activation induced by (S)-(-)-nicotine. How it is done:
(§1) The determination of the interaction of the compounds with muscle receptors was carried out in accordance with the techniques described in U.S. Pat. No. 5,597,919 to Dull et al. The maximal activation for individual compounds (Emax) was determined as a percentage of the maximal activation induced by (S)-(−)-nicotine. Reported Emax values represent the amount released relative to (S)-(−)-nicotine on a percentage basis. […] Such preferable compounds have the capability to activate human CNS receptors without activating muscle-type nicotinic acetylcholine receptors. Thus, there is provided a therapeutic window for utilization in the treatment of CNS disorders. […] The compounds begin to cause muscle effects only when employed in amounts of many times those required to activate dopamine release.

Assay [2] relates to ganglia-type nicotinic acetylcholine receptors. Put plainly: Interaction with ganglion receptors. The class given is cell-based. Conditions: Emax, percentage of maximal activation induced by (S)-(-)-nicotine. On the procedure: as §1, with “ganglionic” for “muscle”, “ganglia-type” for “muscle-type”, “cause” for “cause muscle”, “effects at ganglia” for “effects”
The determination of the interaction of the compounds with ganglionic receptors was carried out in accordance with the techniques described in U.S. Pat. No. 5,597,919 to Dull et al. The maximal activation for individual compounds (Emax) was determined as a percentage of the maximal activation induced by (S)-(−)-nicotine. Reported Emax values represent the amount released relative to (S)-(−)-nicotine on a percentage basis.

One may read the Ki as the dissociation constant of the complex between target and ligand, obtained from inhibition or displacement.

Values joined by “and” are separate entries in the source; they are usually repeats but may differ in a detail not shown here. Equal values may be shown once.

T2 sequence (P02708 21-457): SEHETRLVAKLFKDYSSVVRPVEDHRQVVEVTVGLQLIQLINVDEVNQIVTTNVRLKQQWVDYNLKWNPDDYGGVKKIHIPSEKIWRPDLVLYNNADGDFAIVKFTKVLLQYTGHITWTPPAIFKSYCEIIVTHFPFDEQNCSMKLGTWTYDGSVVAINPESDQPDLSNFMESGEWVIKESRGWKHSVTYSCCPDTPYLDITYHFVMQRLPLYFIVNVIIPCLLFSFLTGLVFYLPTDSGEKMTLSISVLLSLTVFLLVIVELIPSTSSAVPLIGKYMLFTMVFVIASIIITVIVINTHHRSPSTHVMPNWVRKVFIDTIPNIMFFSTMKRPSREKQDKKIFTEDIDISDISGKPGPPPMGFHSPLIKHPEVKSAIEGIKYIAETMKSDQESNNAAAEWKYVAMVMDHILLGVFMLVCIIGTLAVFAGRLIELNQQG
T2 sequence (P11230 24-501 partner): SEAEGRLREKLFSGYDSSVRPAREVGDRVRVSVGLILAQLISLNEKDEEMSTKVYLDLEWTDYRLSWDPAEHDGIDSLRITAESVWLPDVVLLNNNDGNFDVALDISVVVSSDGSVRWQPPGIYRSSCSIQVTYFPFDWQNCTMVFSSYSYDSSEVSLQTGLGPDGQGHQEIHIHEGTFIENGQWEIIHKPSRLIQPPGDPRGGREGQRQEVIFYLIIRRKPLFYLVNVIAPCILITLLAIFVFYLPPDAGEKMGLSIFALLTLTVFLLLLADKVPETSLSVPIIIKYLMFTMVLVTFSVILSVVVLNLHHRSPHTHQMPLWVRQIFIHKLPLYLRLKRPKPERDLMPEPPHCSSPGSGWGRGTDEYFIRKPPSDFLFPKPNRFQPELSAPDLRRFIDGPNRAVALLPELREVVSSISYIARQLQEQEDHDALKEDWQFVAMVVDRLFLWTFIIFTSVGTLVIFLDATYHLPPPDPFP
T2 sequence (Q07001 22-517): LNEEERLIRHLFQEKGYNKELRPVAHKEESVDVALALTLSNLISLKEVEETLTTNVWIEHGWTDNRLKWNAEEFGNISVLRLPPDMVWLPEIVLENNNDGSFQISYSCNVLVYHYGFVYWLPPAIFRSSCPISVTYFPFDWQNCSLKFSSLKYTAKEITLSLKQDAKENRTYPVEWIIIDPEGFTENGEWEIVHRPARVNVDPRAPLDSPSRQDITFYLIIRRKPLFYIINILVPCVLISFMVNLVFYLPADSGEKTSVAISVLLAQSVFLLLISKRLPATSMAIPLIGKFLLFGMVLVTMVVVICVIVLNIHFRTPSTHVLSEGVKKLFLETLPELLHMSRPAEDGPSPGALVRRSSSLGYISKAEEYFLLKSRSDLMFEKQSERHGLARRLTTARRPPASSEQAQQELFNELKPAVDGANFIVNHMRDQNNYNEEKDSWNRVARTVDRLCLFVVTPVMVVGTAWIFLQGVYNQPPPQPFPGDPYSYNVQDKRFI
T2 sequence (P07510 23-517): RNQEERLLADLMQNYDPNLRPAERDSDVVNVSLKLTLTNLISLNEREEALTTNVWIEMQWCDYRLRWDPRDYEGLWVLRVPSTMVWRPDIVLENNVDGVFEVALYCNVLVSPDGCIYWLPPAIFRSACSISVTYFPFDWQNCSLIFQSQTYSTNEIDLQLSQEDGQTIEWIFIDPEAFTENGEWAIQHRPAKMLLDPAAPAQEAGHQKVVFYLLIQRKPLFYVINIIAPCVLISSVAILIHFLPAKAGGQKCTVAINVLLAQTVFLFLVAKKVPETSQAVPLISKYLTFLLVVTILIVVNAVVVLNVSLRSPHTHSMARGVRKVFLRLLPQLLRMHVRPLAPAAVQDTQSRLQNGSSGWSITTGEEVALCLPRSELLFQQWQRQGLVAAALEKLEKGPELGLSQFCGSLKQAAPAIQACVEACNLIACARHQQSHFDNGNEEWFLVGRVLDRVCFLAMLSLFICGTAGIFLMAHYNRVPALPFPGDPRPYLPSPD
T1 sequence (P09483 31-630): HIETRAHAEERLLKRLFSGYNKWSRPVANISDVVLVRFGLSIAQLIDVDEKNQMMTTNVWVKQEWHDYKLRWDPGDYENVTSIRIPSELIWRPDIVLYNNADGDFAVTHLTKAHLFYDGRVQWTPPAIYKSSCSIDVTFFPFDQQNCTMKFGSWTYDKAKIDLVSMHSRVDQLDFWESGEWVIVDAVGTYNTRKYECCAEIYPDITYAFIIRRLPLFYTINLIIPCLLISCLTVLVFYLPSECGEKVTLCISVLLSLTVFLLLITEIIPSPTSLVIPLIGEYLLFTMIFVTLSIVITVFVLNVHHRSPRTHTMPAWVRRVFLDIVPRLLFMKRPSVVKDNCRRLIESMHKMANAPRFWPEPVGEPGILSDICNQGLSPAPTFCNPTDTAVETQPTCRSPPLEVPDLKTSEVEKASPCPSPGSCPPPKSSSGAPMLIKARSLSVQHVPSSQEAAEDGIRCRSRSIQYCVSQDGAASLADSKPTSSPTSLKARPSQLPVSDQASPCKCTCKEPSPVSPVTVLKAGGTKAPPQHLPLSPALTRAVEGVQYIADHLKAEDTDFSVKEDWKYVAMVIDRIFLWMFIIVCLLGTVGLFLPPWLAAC
T1 sequence (P12390 25-500): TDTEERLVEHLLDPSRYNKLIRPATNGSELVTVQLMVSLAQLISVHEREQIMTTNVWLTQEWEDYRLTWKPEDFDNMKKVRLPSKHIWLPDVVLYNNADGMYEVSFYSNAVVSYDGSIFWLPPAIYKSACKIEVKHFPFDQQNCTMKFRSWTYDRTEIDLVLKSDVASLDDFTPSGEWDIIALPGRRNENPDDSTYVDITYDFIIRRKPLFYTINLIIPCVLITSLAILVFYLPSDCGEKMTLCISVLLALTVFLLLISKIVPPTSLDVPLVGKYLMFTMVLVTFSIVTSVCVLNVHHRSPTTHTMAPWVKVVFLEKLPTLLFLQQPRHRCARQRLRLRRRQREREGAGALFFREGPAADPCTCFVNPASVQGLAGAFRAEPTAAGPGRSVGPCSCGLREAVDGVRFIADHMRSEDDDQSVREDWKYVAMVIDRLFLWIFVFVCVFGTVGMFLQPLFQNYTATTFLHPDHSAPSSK

On to “Methyl(3-(2-methyl(3-pyridyloxy))propyl)amine Hemigalactarate [Example 21]”, for which the Ki at CNS nicotinic receptors was 236 nM. Besides, in the assay with Rat brain synaptosomes, the neurotransmitter release stood at 69%. Further, the “effect at muscle sites” value in assay [1] was found to be 0%. Besides, the “effect at ganglia sites” value in assay [2] was found to be 15%.
As to “Methyl(4-(3-pyridyloxy)butyl)amine Hemigalactarate [Example 13]”, on CNS nicotinic receptors, the inhibitory constant (Ki) was 5520 nM. In addition, in the assay with Rat brain synaptosomes, the neurotransmitter release is 56%.
“3-(3-Aminopropoxy)phenylamine Hemigalactarate [Example 29]”: on CNS nicotinic receptors, the Ki is 442 nM. Further, the neurotransmitter release with Rat brain synaptosomes was 14%.
On to “3-(5-Chloro-3-pyridyloxy)propylamine Hemigalactarate [Example 15]”, for which the Ki at CNS nicotinic receptors is 46 nM. In the assay on Rat brain synaptosomes, the neurotransmitter release is on record as 110%. Also, the “effect at muscle sites” value in assay [1] amounted to 0%. For the same compound, the “effect at ganglia sites” value in assay [2] is listed as 4%.
Take `CN(C)CCOc1cccnc1` [Example 9, Dimethyl(2-(3-pyridyloxy)ethylamine Hemigalactarate]: in the assay with Rat brain synaptosomes, the neurotransmitter release is recorded as 0%. Further, the “effect at muscle sites” value in assay [1] came out at 0%. For the same compound, in assay [2], the “effect at ganglia sites” value turned out to be 0%.
`c1ccc(CNCCCOc2cccnc2)cc1` [Example 24, Benzyl(3-(3-pyridyloxy)propyl)amine]: the neurotransmitter release in the assay with Rat brain synaptosomes stood at 29%.
Take “(2-(5-Bromo(3-pyridylthio))ethyl)methylamine Hemigalactarate [Example 38]”: at CNS nicotinic receptors, the Ki was 3400 nM.
In the case of “(3-(3-Aminophenoxy)propyl)methylamine Hemigalactarate [Example 30]”, the Ki at CNS nicotinic receptors was 64 nM. Further, in the assay on Rat brain synaptosomes, the neurotransmitter release was 30% and 60%. The “effect at muscle sites” value in assay [1] is listed as 11%. In addition, the “effect at ganglia sites” value in assay [2] amounted to 5%.
As to “Dimethyl(3-(3-(methylamino)propoxy)phenyl)amine Hemigalactarate [Example 31]”, the inhibition constant Ki on CNS nicotinic receptors was 10000 nM. In the assay with Rat brain synaptosomes, the neurotransmitter release is listed as 16%.
Taken in the same sequence, the figures for `CC(C)NCCCOc1cccnc1` [Example 23, (Methylethyl)(3-(3-pyridyloxy)propyl)amine] were 8500 nM and 16%.
Regarding “(3-(5-Chloro(3-pyridyloxy))propyl)methylamine Hemigalactarate [Example 16]”, on CNS nicotinic receptors, the Ki is 11 nM. Besides, in the assay with Rat brain synaptosomes, the neurotransmitter release amounted to 100%. The “effect at muscle sites” value in assay [1] is 16%. Also, the “effect at ganglia sites” value in assay [2] worked out at 7%.
Taken in the same sequence, the figures for “Ethyl(3-(3-pyridyloxy)propyl)amine Hemigalactarate [Example 22]” were 66 nM, 57%, 13% and 13%.
For “Methyl(1-methyl-3-(3-pyridyloxy)propyl)amine Hemigalactarate [Example 26]” the same measures were 138 nM, 49%, 16% and 20%.
Consider “(3-(5-Bromo(3-pyridyloxy))propyl)methylamine Hemigalactarate [Example 6]”, for which the Ki on CNS nicotinic receptors is 44 nM.
Take “Cyclopropyl(3-(3-pyridyloxy)propyl)amine Hemigalactarate [Example 25]”: the Ki on CNS nicotinic receptors was 165 nM. For the same compound, the neurotransmitter release in the assay on Rat brain synaptosomes is given as 51%. Besides, the “effect at muscle sites” value in assay [1] is 9%. In assay [2], the “effect at ganglia sites” value amounted to 10%.
Consider “Methyl(2-(3-pyridyloxy)ethyl)amine Hemigalactarate [Example 8]”, for which the inhibition constant (Ki) at CNS nicotinic receptors was 65 nM. Further, in the assay on Rat brain synaptosomes, the neurotransmitter release turned out to be 143%. Besides, the “effect at muscle sites” value in assay [1] turned out to be 0%. Besides, in assay [2], the “effect at ganglia sites” value is recorded as 0%.
“Methyl(3-(5-isopropoxy-3-pyridyloxy)propyl)amine Monogalactarate [Example 18]”: the Ki at CNS nicotinic receptors was 21 nM. Besides, in the assay with Rat brain synaptosomes, the neurotransmitter release came out at 36%. Further, in assay [1], the “effect at muscle sites” value is reported as 22%. In addition, the “effect at ganglia sites” value in assay [2] worked out at 0%.
For “Methyl(3-(3-nitrophenoxy)propyl)amine Hemigalactarate [Example 28]” the same measures were 392 nM, 67%, 10% and 9%.
Taken in the same sequence, the figures for “Methyl(3-(5-methoxy-3-pyridyloxy)propyl)amine Hemigalactarate [Example 17]” were 15 nM, 54%, 10% and 5%.
“Methyl(3-(6-methyl(3-pyridyloxy))propyl)amine Hemigalactarate [Example 20]”: the Ki at CNS nicotinic receptors is 12 nM. Besides, in the assay on Rat brain synaptosomes, the neurotransmitter release is reported as 77%. The “effect at muscle sites” value in assay [1] amounted to 0%.
For the compound “Dimethyl(3-(3-pyridyloxy)propyl)amine Hemigalactarate [Example 11]”, the inhibitory constant (Ki) at CNS nicotinic receptors is 126 nM. Besides, the neurotransmitter release with Rat brain synaptosomes is recorded as 32%. Moreover, the “effect at muscle sites” value in assay [1] is listed as 8%. In assay [2], the “effect at ganglia sites” value is listed as 5%.
On to “2-(3-Pyridyloxy)ethylamine Hemigalactarate [Example 7]”, for which, at CNS nicotinic receptors, the inhibition constant Ki was 1600 nM. In addition, the neurotransmitter release with Rat brain synaptosomes came out at 30%.
For “4-(3-Pyridyloxy)butylamine Hemigalactarate [Example 12]”, the Ki on CNS nicotinic receptors is 232 nM. Moreover, the neurotransmitter release in the assay on Rat brain synaptosomes stood at 100%. The “effect at muscle sites” value in assay [1] amounted to 0%. The “effect at ganglia sites” value in assay [2] is on record as 11%.
Consider “(3-(5-Chloro(3-pyridyloxy))-1-methylpropyl)methylamine Hemigalactarate [Example 27]”, for which the inhibition constant Ki on CNS nicotinic receptors is 1600 nM. Also, the neurotransmitter release with Rat brain synaptosomes was found to be 30%.
Taken in the same sequence, the figures for “(3-Benzo[3,4-d]1,3-dioxolan-5-yloxypropyl)methylamine Hemigalactarate [Example 34]” were 16600 nM and 41%.
Consider “3-(3-Pyridyloxy)propylamine Hemigalactarate [Example 10]”, for which, in the assay on Rat brain synaptosomes, the neurotransmitter release came to 0%. Also, the “effect at muscle sites” value in assay [1] turned out to be 0%. In addition, in assay [2], the “effect at ganglia sites” value was found to be 0%.
Consider “Dimethyl(4-(3-pyridyloxy)butyl)amine Hemigalactarate [Example 14]”, for which the inhibitory constant (Ki) on CNS nicotinic receptors was 3410 nM. Besides, the neurotransmitter release in the assay with Rat brain synaptosomes turned out to be 24%.
For “Methyl(3-(5-(phenylmethoxy)(3-pyridyloxy))propyl)amine Hemigalactarate [Example 19]”, at CNS nicotinic receptors, the inhibitory constant (Ki) is 2 nM. In addition, the neurotransmitter release in the assay with Rat brain synaptosomes turned out to be 38%. In assay [1], the “effect at muscle sites” value is given as 1%. Also, the “effect at ganglia sites” value in assay [2] stood at 3%.
As for “Methyl(3-tricyclo[7.3.1.0<5,13>]tridec-2-yloxypropyl)amine Hemigalactarate [Example 32]”, the inhibition constant Ki at CNS nicotinic receptors was 100000 nM.
